In brackets after ≈: the same amount, converted by molar mass. Residues, ends and D or L forms follow the SMILES beside them.
Assays:
[1] = system: Human lung cancer A549 tumor model; experiment: Inhibition on in vivo growth of tumor in combination with DDP, A549 model; settings: for Tumor inhibitor rate (%): A549, day 21
Protocol: In vitro cultured tumor cells in exponential phase and in good state were formulated to a 100 μl cell suspension containing 5×10^6 tumor cells. The suspension was subcutaneously inoculated to nude mice. Well-grown solid tumors were obtained 15 days later and cut into uniform pieces of about 3 mm under sterile condition. Each nude mouse was inoculated by one piece through a trocar. Mice were re-grouped according the tumor size 10-14 days after inoculation and animals having too large and too small tumor were excluded from the test. […] Test drugs were administered to each group according to the experimental protocol. The major axis (a) and minor axis (b) of the tumor were measured twice a week. Animals were sacrificed at the end of the test. The tumor was taken out, weighed and photos were taken. Tumor volume (TV)=½×a×b^2; Relative tumor volume (RTV)=Vt/Vo, wherein Vo is the tumor volume measured before grouping (one day before administration of the test drug), and Vt is the tumor volume measured at each time. Tumor inhibition rate (%)=(1−T/C)×100%, wherein T is the average tumor volume of the treatment group and C is the average tumor volume of the negative control group.
The amino acid sequence of recombination endostatin (“endostatin”) was set forth in SEQ ID NO: 1, and the amino acid sequence of the marketed drug Endostar (“endostar”) was set forth in SEQ ID NO: 10. Human lung cancer A549 tumor model was constructed according to the method described in Example 10. The test contained 7 groups, with 6 animals in each group. The molar dose of the polypeptides was basically equal to the molar dose of endostatin.

SMMC7721 (Liver cancer) = experiment: MTT in vitro inhibition of SMMC7721; assay type: cell-based
Protocol: (§1) Inhibition of cell growth was detected by a MTT method, which is based on the principle that succinate dehydrogenase in the mitochondria of the live cells could reduce the exogenous MTT (3-(4,5-dimethyl-2-thiazolyl)-2,5-diphenyl-tetrazolium bromide) to a […] Formazan which is a blue-violet crystal, and precipitates in the cells, while the death cells could not reduce MTT. DMSO could dissolve Formazan in the cells. Absorbance value of the solution was determined at 490/570 nm by microplate reader, which could indirectly indicate the amount of the live cells. The amount of the crystal from MTT is proportional to the amount of the cells within a certain range of cell number. The supernate from the HUVEC or tumor cells in exponential phase was removed and the cells were washed by PBS once. 1 ml 0.25% trypsin (4° C.) was added for digestion at 37° C. for 2 min. Then the supernate was added for neutralization and the cells were dispersed to form a suspension and the suspension was centrifuged at 1000 rpm for 3 min. The supernate was removed and 5 ml culture mediums were added for resuspension. Cells were inoculated in a 48-well plate by 500 ul/well at the concentration of 3×10^4/ml and then incubated under 5% CO2, 37° C. for 24 hours. The supernate was removed and a culture medium containing polypeptide (Zn^2+ in the culture medium was present at the concentration of 17.39 μmol/L) was added for further incubation for 48 hours. Supernate in each well was carefully removed. The well was gently washed by PBS once in an amount of 450 μl/well. 450 μl MTT culture mediums were added into each well for further cultivation for 4 hours. The supernate was carefully discarded. DMSO was added in an amount of 450 μl/well and then the plate was placed in a shaking bed for oscillation for 10 min in dark. 150 μl supernates were transferred to a 96-well ELISA plate and absorbance value of each well was detected at 490 nm and 570 nm by the microplate reader.
(§2) P2 (SEQ ID NO:2) and P2T2S18 (SEQ ID NO:6) were tested for their in vitro inhibition on SMMC7221, SPC-A-1, A549, LS174T, BEL7402, CK-MES-1 and BxPC-3 at a polypeptide concentration of 1 mg/ml according to the method described in Example 3. Results are shown in FIG. 9 and the following Table. […] All IC50 concentrations for P2T2S18 are less than 1/10 IC50 concentration of P2.

[2] = system: Human Umbilical Vein Endothelial Cell (HUVEC); assay type: cell-based
[3] = system: CK-MES-1 (lung squamous cell carcinoma); experiment: MTT in vitro inhibition of CK-MES-1; assay type: cell-based
Protocol: as §1, §2

A549 (lung carcinoma) = experiment: MTT in vitro inhibition of A549; assay type: cell-based
Protocol: as §1, §2

LS174T (Colon cancer) = assay type: cell-based
Protocol: as §1, §2

SPC-A-1 (lung carcinoma) = assay type: cell-based
Protocol: as §1, §2

[4] = system: Human liver cancer BEL7404 tumor model; assay type: in vivo
Protocol: In vitro cultured tumor cells in exponential phase and in good state were formulated to a 100 μl cell suspension containing 5×10^6 tumor cells. The suspension was subcutaneously inoculated to nude mice. Well-grown solid tumors were obtained 15 days later and cut into uniform pieces of about 3 mm under sterile condition. Each nude mouse was inoculated by one piece through a trocar. Mice were re-grouped according the tumor size 10-14 days after inoculation and animals having too large and too small tumor were excluded from the test. The average tumor volume for each group was basically identical. Test drugs were administered to each group according to the experimental protocol. The major axis (a) and minor axis (b) of the tumor were measured twice a week. Animals were sacrificed at the end of the test. The tumor was taken out, weighed and photos were taken. Tumor volume (TV)=½×a×b^2; Relative tumor volume (RTV)=Vt/Vo, wherein Vo is the tumor volume measured before grouping (one day before administration of the test drug), and Vt is the tumor volume measured at each time. Tumor inhibition rate (%)=(1−T/C)×100%, wherein T is the average tumor volume of the treatment group and C is the average tumor volume of the negative control group.
The amino acid sequence of recombination endostatin (“endostatin”) was set forth in SEQ ID NO: 1, and the amino acid sequence of the marketed drug Endostar (“endostar”) was set forth in SEQ ID NO: 10. Human liver cancer BEL7404 tumor model was constructed according to the method described in Example 10. The test contained 6 groups, with 6 animals in each group, except for the negative control group which contained 9 animals. The molar dose of the polypeptides was basically equal to the molar dose of endostatin. The results are shown in FIGS. 11a and 11b and the following Table.

BEL7402 (Liver cancer) = experiment: MTT in vitro inhibition of BEL7402; assay type: cell-based
Protocol: as §1, §2

[5] = system: lung cancer cell line SPC-A-1; experiment: In vitro death of SPC-A-1 tumor cell observed under optical microscope; assay type: cell-based; settings: SPC-A-1, 2.5 mg/ml
Protocol: Polypeptides were tested for their effect in inducing cell death of lung cancer cell line SPC-A-1 at a polypeptide concentration of 2.5 mg/ml according to the method described in Example 3. Cells were observed under an optical microscope over 24 hours and photos were taken. P2 exerts its function 4 hours after being added into the culture medium. […] On the contrary, they extremely swelled. 4 hours later cells further swelled and began to disintegrate at 8 hours. […] The manner of P2T2S18 caused cell death is very surprising. Currently, it is unable to determine what manner this kind of cell death belongs to. No report is found in papers as well. However, this mode of cell death is obviously different from that caused by P2. Together with the results in Example 7, it can conclude that P2T2S18 not only has a biological activity obviously higher than P2, but also has a manner causing cell death obviously different from that of P2.

tumor cell HepG2 = assay type: cell-based
How it was run: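 Cells seeded at 3×10^4/ml and grown 24 h, then exposed 48 h at 37 °C, 5% CO2 to polypeptide in medium containing Zn2+ at 17.39 μmol/L. Growth inhibition measured by MTT reduction (4 h), formazan dissolved in DMSO and absorbance read at 490 and 570 nm.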

[6] = system: BxPC-3 (pancreatic cancer); experiment: MTT in vitro inhibition of BxPC-3; assay type: cell-based
Protocol: as §1, §2

N.N.[Cl][Pt][Cl] [DDP, Cisplatin]
Tumor inhibitor rate (%) ([1]; DDP 2 mg/kg/day ip 7 days alone or with polypeptide 15 mg/kg or endostatin/endostar 50 mg/kg sc 2 times per day 21 days): 24.8%
Tumor inhibitor rate (%) ([1]; DDP 6 mg/kg/day ip 7 days (high dose)): 81.9%
animals with residual tumor ([1]; of 6 animals, combination with DDP 2 mg/kg, DDP alone 6 mg/kg): 6

CC[C@H](C)[C@H](NC(=O)CNC(=O)[C@H](CCCNC(=N)N)NC(=O)[C@H](CCSC)NC(=O)CNC(=O)CNC(=O)[C@H](CO)NC(=O)[C@H](CC(C)C)NC(=O)[C@H](CO)NC(=O)[C@H](CO)NC(=O)[C@H](CC(N)=O)NC(=O)[C@H](CC(C)C)NC(=O)[C@H](C)NC(=O)[C@@H](NC(=O)[C@H](CC(C)C)NC(=O)[C@H](Cc1c[nH]cn1)NC(=O)[C@H](CC(C)C)NC(=O)[C@@H](NC(=O)[C@@H]1CCCN1C(=O)[C@H](CCC(N)=O)NC(=O)[C@H](Cc1ccccc1)NC(=O)[C@H](CC(=O)O)NC(=O)[C@H](CCCNC(=N)N)NC(=O)[C@H](Cc1c[nH]cn1)NC(=O)[C@@H](NC(=O)[C@H](Cc1c[nH]cn1)NC(C)=O)[C@@H](C)O)C(C)C)C(C)C)C(=O)N[C@@H](CCCNC(=N)N)C(=O)NCC(=O)N[C@@H](C)C(=O)N[C@@H](CC(=O)O)C(N)=O [Polypeptide P2T2S18] (Ac-HTHRDFQPVLHLVALNSSLSGGMRGIRGAD-NH2)
IC50 (SMMC7721 (Liver cancer); SMMC7721): 76.9 µg/mL (≈ 23.4 µM)
Cell Survival (%) at a polypeptide concentration of 1 mg/ml (SMMC7721 (Liver cancer); SMMC7721, 1 mg/ml): 9%
IC50 (ug/ml) HUVEC [2]: 66.7 µg/mL (≈ 20.3 µM)
Cell Survival (%), 1 mg/ml of polypeptide, HUVEC ([2]; 1 mg/ml): 2%
Cell Survival (%) at a polypeptide concentration of 120 μM ([2]; 6 h, 120): 2%
reduction of IC50 concentration as compared to that of P2 ([2]; HUVEC and HepG2): about 10 folds
IC50 ([3]; CK-MES-1): 66.7 µg/mL (≈ 20.3 µM)
Cell Survival (%) at a polypeptide concentration of 1 mg/ml ([3]; CK-MES-1, 1 mg/ml): 7%
IC50 (A549 (lung carcinoma); A549): 72.5 µg/mL (≈ 22.1 µM)
Cell Survival (%) at a polypeptide concentration of 1 mg/ml (A549 (lung carcinoma); A549, 1 mg/ml): 18%
IC50 (LS174T (Colon cancer)): 84.7 µg/mL (≈ 25.8 µM)
Cell Survival (%) at a polypeptide concentration of 1 mg/ml (LS174T (Colon cancer); 1 mg/ml): 1%
IC50 (SPC-A-1 (lung carcinoma); SPC-A-1): 80.6 µg/mL (≈ 24.5 µM)
Cell Survival (%) at a polypeptide concentration of 1 mg/ml (SPC-A-1 (lung carcinoma); SPC-A-1, 1 mg/ml): 16%
IC50 concentration as fraction of IC50 concentration of P2 (SPC-A-1 (lung carcinoma); all seven tumor cell lines of Example 10): less than 1/10
Tumor inhibitor rate (%) ([4]; BEL7404, day 21, polypeptides 15 mg/kg sc 2 times per day 21 days, endostatin/endostar 50 mg/kg sc, CTX 30 mg/kg ip 7 days): 76.7%
toxic reaction ([4]; BEL7404 model, same regimens): did not produce toxic reaction
IC50 (BEL7402 (Liver cancer); BEL7402): 64.9 µg/mL (≈ 19.8 µM)
Cell Survival (%) at a polypeptide concentration of 1 mg/ml (BEL7402 (Liver cancer); BEL7402, 1 mg/ml): 4%
time after being added into the culture medium at which the polypeptide acts on the cells [5]: 2 h
state of cells at 24 hours ([5]; 24 hours): only cell debrises left
manner of induced cell death ([5]; optical microscope): cells did not shrink. On the contrary, they extremely swelled
IC50 (ug/ml) HepG2 (tumor cell HepG2): 76.9 µg/mL (≈ 23.4 µM)
Cell Survival (%), 1 mg/ml of polypeptide, HepG2 (tumor cell HepG2; 1): 4%
IC50 ([6]; BxPC-3): 78.1 µg/mL (≈ 23.8 µM)
Cell Survival (%) at a polypeptide concentration of 1 mg/ml ([6]; BxPC-3, 1 mg/ml): 3%
